The results in this text go back to patent publication US8518956B2, “1-(1-(2-ethoxyethyl)-3-ethyl-7-(4-methylpyridin-2-ylamino)-1H-pyrazolo[4,3-d]pyrimidin-5-yl) piperidine-4-carboxylic acid and salts thereof” (priority 2005, dated 2013).

In one data set the target is T1, PDE11 enzyme (Homo sapiens, UniProt Q9HCR9, DUP921-921).
T1 construct: FLAG (N); made in house; host or cells: Sf9 insect cells (baculovirus, pFastBac)
Briefly: Method 3: Human Recombinant PDE11 Enzyme Inhibition Scintillation Proximity Assay (SPA). The class given is biochemical. As to conditions: Table F, WO2004096810 examples; read-out: METHOD 3: PDE11 IC50. The method, then: Method 3: Human Recombinant PDE11 Enzyme Inhibition Scintillation Proximity Assay (SPA)
PDE11 Expression and Purification:
Incubate at 27° C. with 220 rpm shaking for 48 hours. Harvest the infected cells by pelleting at 2000 rpm for 10 minutes at 4° C. Store the infected cell pellet at −80° C. until ready for purification. Resuspend the thawed cell pellets to 1×10^7 cells/ml (=20 ml buffer consisting of 20 mM Hepes (pH7.2), 1 mM EDTA, 20 mM sucrose, 150 mM NaCl and protease inhibitor tablets). Mix thoroughly and allow to stand on ice for 10 minutes. Sonicate for 5×5 seconds, on ice. Spin the mixture at 12,000 rpm for 10 minutes at 4° C. in SS34. Store the insoluble pellet at −80° C., and proceed to the purification of the soluble material. • (b) Purification: Prepare the column (1.0 cm diameter, Kontes) by rinsing the empty column twice with TBS. Then mix beads (Anti-FLAG M2 Agarose, Sigma) with TBS and add to the column—allow the beads to settle. Wash the column with 3 column volumes of 0.1M glycine (pH3.5). […] Apply the extract to the column and allow the extract to enter by gravity flow. Reapply the flow-through. Wash the column with 15 column volumes of TBS. Elute the protein with 5×1 ml aliquots of FLAG peptide (Sigma) (i.e., 100 ug/ml in TBS). Elute the remaining protein with 1 ml 0.1M glycine, and immediately add 25 ul 1M Tris pH8 to neutralize. Method 3A: Alternative Human Recombinant PDE11 Enzyme Inhibition Scintillation Proximity Assay (SPA)

Data set [1] in a line: Method 11: Single Dose Pharmacokinetics and Oral Bioavailability in Male Sprague-Dawley Rat. As to conditions: mean; for AUC(0-inf) / clearance / half-life / Vd / Cmax / Tmax: plasma, 2 mg/kg; for Vd: read-out: Vdss; for F: po 2 mg/kg vs iv 2 mg/kg. The format is in vivo. The method, then: Repeat testing is recommended in order to establish a valid assay test result. P. Pharmacokinetic/Pharmacodynamic Study Method 11: Single Dose Pharmacokinetics and Oral Bioavailability in Male Sprague-Dawley Rat Following Intravenous and Oral Administration
An in vivo model can be used to evaluate the single dose pharmacokinetic properties and absolute oral bioavailability of a test compound. As described more specifically below, a test compound is administered to Sprague-Dawley (SD) rats either intravenously or orally in a crossover study design and the resulting pharmacokinetic properties and oral bioavailability are measured.
Male rats are administered a 2.0 mg/kg dose orally (n=2) by gavage as a suspension (0.5% methylcellulose/0.1% Tween 80 in distilled water). After a 72 hour wash-out periond, the same rats were administered 2.0 mg/kg dose bolus intravenously (n=2) as a solution (70% PEG 400/20% 0.05 M Citrate Buffer pH 3/10% Ethanol). Serial blood samples (for plasma) are collected from each rat over a 24 hour post dose for each route. […] Pharmacokinetic parameters of a test compound are determined from the plasma concentration-time data using non-compartmental methods. • LC/MS/MS: 1) Column: Hyperso; AQUASIL C-18 2.1×20 mm, 3.0 μm; 2) Mobile phase: Aqueous Water with 0.1% Formic Acid, Orgainic: Acetonitrile; Ionization: +ESI (API 4000). MRM: m/z 494.4→m/z 394.0 (Example 261 in WO2004096810), m/z 509.44→m/z 409.80 (Example 263 in WO2004096810), m/z 495.33→m/z 395.20 (Example 262 in WO2004096810). The detection limits are 0.12 ng/mL (Example 261 in WO2004096810), 1.3 ng/mL (Example 263 in WO2004096810) and 0.11 ng/mL (Example 262 in WO2004096810).
Watson (Version 6.4.0.04) is used to calculate mean test compound concentrations, corresponding standard deviations (SD), and percent coefficient of variation (% CV), and to estimate pharmacokinetic parameters (derived by noncompartmental methods) and associated statistics (mean, SD & CV %) if applicable. (Since n=2, no SD or CV calculated ?). Concentrations below the limit of quantitation (BLQ) are reported as zero (0) and are used in the evaluation of mean concentrations and the estimation of AUC. The peak plasma concentration (Cmax) and the time to reach peak concentration (tmax) are recorded directly from individual plasma concentration-time profiles. The terminal log-linear phase of the plasma concentration-time curve is identified by linear regression of data points. The terminal half-life (t1/2) is calculated as ln(2) divided by absolute value of the slope of the terminal log-linear phase. The area under the plasma concentration-time curve from time zero to time of the last quantifiable concentration (t) [AUC(0-t)] is determined using the linear trapezoidal method. The area under the plasma concentration-time curve from time zero to infinity [AUC(0-∞)] is determined as AUC(0-t) plus the extrapolated area. The extrapolated area is determined by dividing the last observed plasma concentration by the slope of the terminal log-linear phase. Systemic plasma clearance (CL) is calculated as dose/AUC(0-∞) while the volume of distribution at steady state (Vdss) is calculated as CL×MRT, where MRT (mean residence time) is defined as AUMC(0-∞)/AUC(0-∞). The absolute PO bioavailability (F) is calculated as a ratio of the dose-normalized AUC(0-∞) of individual animal after PO administration to the dose-normalized AUC(0-∞) of individual animal after IV administration given the crossover study design.

T1 sequence (Q9HCR9 with tags, fused parts or gaps DUP921-921 limits assumed): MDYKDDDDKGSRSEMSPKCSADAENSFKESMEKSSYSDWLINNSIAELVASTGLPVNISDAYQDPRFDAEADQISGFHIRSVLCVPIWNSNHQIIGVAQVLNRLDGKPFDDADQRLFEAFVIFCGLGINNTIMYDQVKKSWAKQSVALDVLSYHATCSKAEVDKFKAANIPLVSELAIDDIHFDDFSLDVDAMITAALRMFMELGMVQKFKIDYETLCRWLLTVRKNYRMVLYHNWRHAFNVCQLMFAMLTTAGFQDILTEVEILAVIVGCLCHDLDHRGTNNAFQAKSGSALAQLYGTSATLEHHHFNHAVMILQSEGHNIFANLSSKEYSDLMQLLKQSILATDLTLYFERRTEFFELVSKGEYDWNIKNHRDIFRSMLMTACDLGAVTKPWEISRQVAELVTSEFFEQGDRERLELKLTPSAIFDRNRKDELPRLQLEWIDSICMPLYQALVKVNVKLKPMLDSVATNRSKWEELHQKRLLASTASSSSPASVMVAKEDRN

As usually defined, the IC50 is the concentration that gives 50% inhibition. One may read the AUC(0-inf) as the area under the concentration-time curve extrapolated to infinity. High values mean more exposure, low ones less exposure. In general, half-life refers to how long it takes for the measured level to halve. High values mean slow decline, low ones rapid decline. Broadly, the Cmax is the maximum level reached in the sampled fluid or tissue. One may read the Tmax as the time from dosing to the highest level. As to `Cc1ccnc(Nc2nc(N3CCC(C(=O)O)CC3)nc3c(C)nn(CCOCC(F)(F)F)c23)c1` [WO2004096810 Example 261], the 50% inhibitory concentration (IC50) at PDE11 enzyme stood at 0.426 µM. Further, in data set [1] (iv), the AUC(0-inf) came out at 19 µg·h/mL, the clearance was determined as 0.105 L/h/kg, the half-life is 6.4 h and the Vd worked out at 0.564 L/kg. In data set [1] (po), the AUC(0-inf) came to 20 µg·h/mL, the concentration peaked (Cmax) at 2.35 µg/mL, the Tmax came out at 0.67 h and the half-life is 6.7 h. The F in data set [1] was determined as 105%.

As to `Cc1cc(Nc2nc(N3CCC(C(=O)O)CC3)nc3c(C)nn(CCOCC(F)(F)F)c23)ncn1` [WO2004096810 Example 262], on PDE11 enzyme, the IC50 stood at 0.471 µM. Moreover, in data set [1] (iv), the AUC(0-inf) turned out to be 0.44 µg·h/mL, the clearance came out at 4.58 L/h/kg, the half-life is 5.5 h and the Vd is 6.11 L/kg. Further, in data set [1] (po), the AUC(0-inf) amounted to 0.28 µg·h/mL, the concentration peaked (Cmax) at 0.0871 µg/mL, the Tmax came out at 0.67 h and the half-life was 3.4 h. The same compound gave a F in data set [1] of 63.9%.

Consider `CCc1nn(CCOCC(F)(F)F)c2c(Nc3cc(C)ncn3)nc(N3CCC(C(=O)O)CC3)nc12` [WO2004096810 Example 263], for which the IC50 on PDE11 enzyme was determined as 0.316 µM. Further, in data set [1] (iv), the AUC(0-inf) worked out at 0.555 µg·h/mL, the clearance was determined as 3.61 L/h/kg, the half-life is 4.5 h and the Vd amounted to 5.07 L/kg. Further, in data set [1] (po), the AUC(0-inf) was 0.329 µg·h/mL, the Cmax is 0.102 µg/mL, the Tmax was found to be 0.33 h and the half-life was 3.8 h. The compound also came in with a F in data set [1] of 60.0%.
